Measurements as given in patent US5449608A, “Parvovirus B19 receptor and parvovirus B19 detection” (The United States of America as represented by the …, priority 1993, dated 1995).

Experiments:
[1] = test system: human red cells; assay: Hemagglutination (HA) assay with reagent-treated erythrocytes and B19 empty capsids; assay type: cell-based; settings: for Change in HA titer (log2): erythrocytes incubated with agent at 37° C.; for Effect of red cell treatment on binding of virus to the erythrocytes: human red cells treated with agent
Excerpt: (§1) The B19 parvovirus receptor was identified utilizing a hemagglutination (HA) assay as described in Brown and Cohen (1992). Briefly, the ability of B19 to hemagglutinate human red cells was utilized to evaluate the ability of certain compounds to inhibit agglutination in the assay. Cellular components from red cell membranes were fractionated and their reactivity evaluated in the HA assay. Lipid extraction and purification of glycolipid fractions followed by evaluation in the HA assay identified the glycosphingolipid, globoside, as the cellular receptor for B19. Further, biochemical characterization and HA evaluation identified the polysaccharide GalNAc(β,3-3)Gal(α1-4)Gal(β,1-4)Glc as the specific binding domain for B19. […] Antibodies specific for globoside were also utilized in the assay to block infectivity to verify that globoside was the receptor.
In order to characterize the physical nature of the B19 receptor, human red cells were treated with a variety of agents and the change in hemagglutination (HA) titer measured (ICE. Brown et al. (1992)) (Table 1).
Table 1. Washed erythrocytes (0.5% v/v) were incubated at 37° C.
with the reagents, washed twice in saline and resuspended at 0.5%. The
cells were used in a standard hemagglutination assay using B19 empty
capsids produced in insect cells (Brown and Cohen (1992)) the end point
was 50% HA (1 HA50). In the table, therefore, an increasing the HA
titer (log2) by a factor of one reflects a doubling of the measured

[2] = test system: B19 empty capsids; assay: Hemagglutination inhibition assay (HAI); assay type: binding, parvovirus B19; settings: for HAI titer: Purified glycosphingolipid, 1 mg/ml in saline, 4-8 HA50 units of virus capsid
Excerpt: as §1
To identify the B19 cellular receptor, the ability of B19 to agglutinate red cells and B19 infectivity assays were used as measures of viral binding. It had been previously shown that B19 parvovirus empty capsids (S. Kajigaya et al. (1991)) agglutinate human red cells Brown and Cohen (1992)), and we tested the ability of membrane extracts from different cell types to block B19 binding in the hemagglutination assay (HA). Membrane extracts were prepared using 10 mM CHAPS (3-[(3cholamidopropyl)-dimethylammonio]-1-propanesulfonate) to solubilize proteins and lipids.
Table 2. Human erythrocyte ghosts (J. T. Dodge, et al (1963)) were treate
with 10 mM CHAPS, the solubilized extract incubated with agarose
immobilized enzymes overnight at 37° C. and the supernatant tested
in a hemagglutination inhibition assay (HAI). Purified glycosphingolipids
(Sigma or BioCarb Chemicals) were dissolved in saline and tested by HAI
using 4-8 HA50 units of virus capsid. (In the table, CTH is ceramide
trihexoside and the HAI titer is the dilution required to reduce the HA t
Table 3. Hemagglutination inhibition (HAI) titers red cell lipid
fractionated on different columns. Lipid was extracted from red cell
ghosts (9,12) and fractionated on either a silica gel or
DEAEcellulose-acetate column (13). Organic solvents were removed by
evaporation and salts removed by dialysis against water and
lyophilization. The residual pellets were resuspended in saline and teste
in the hemagglutination assay.

[3] = test system: B19 virus; assay: Erythroid progenitor assay (CFU-E in methylcellulose) for B19 infection; assay type: cell-based, parvovirus B19; settings: for Blocking of B19 cytotoxicity to CFU-E: B19 virus preincubated with globoceramide two hours, then bone marrow mononuclear cells two hours, CFU-E counted seven days later
Procedure: To establish the biological relevance of binding of virus to P antigen, globoceramides were tested for their ability to block vital infection of permissive cells, using the erythroid progenitor assay (P. P. Mortimer et al. (1983)). Parvovirus B19 is highly toxic to the production of erythroid colonies from late erythroid progenitors (CFU-E) in methylcellulose culture, and this system was used as an assay for B19 infection. In the study, binding of B19 antigen to P antigen was shown by competition of infection using globoside or monoclonal antibody to P antigen. First, B19 virus was preincubated with different globoceramides, e.g., lactosyl, triosyl, and Forssman (Sigma or BioCarb Chemicals) and with different globoside concentrations for two hours, and then mixed with bone marrow mononuclear cells for a further two hours. […] Second, mouse monoclonal antibodies to P-antigen (A. E. yon dem Borne et al. (1986)) or P1 or p^k (BioCarb Chemicals) were diluted 1:100 and incubated with bone marrow mononuclear cells for two hours. Purified B19 virus as above was added for a further two hours. The cell mixtures were plated in methylcellulose (P. Mortimer et al. (1983)) and CFU-E counted seven days later. […] There was no protection with similar antibodies against P1 or p^k.

[4] = test system: B19 empty capsids; assay: Binding of viral capsids to glycosphingolipids by thin layer chromatography; set-up: species or system parvovirus B19; settings: 1 ug of purified glycosphingolipid on silica plate
Procedure: Red cells from individuals with different blood group P system phenotypes were tested for their ability to agglutinate with parvovirus B19. Only cells containing P antigen hemagglutinated: P1 phenotype HA titer was 10,000; P2 phenotype HA titer was 5,000; P1^k and p phenotype were <200. […] Lipids were extracted from 0.2 mls packed red cells (H. Rose et al. (1965)) of patients with different P blood group phenotypes, dried and resuspended in 50 ul chloroform:methanol 1:1.20 ul of extract or 1 ug of each purified glycosphingolipid (Calbiochem) were applied to a silica plate (Merck) and chromatography performed with chloroform:methanol:water 65:25:4. Non-specific binding was blocked with 3% bovine albumin in phosphate buffered saline (16 hours) before the plates were sequentially incubated with B19 empty capsids, a human polyclonal anti-B19 serum, goat anti-human antibody conjugated with horse radish peroxidase, and developed with diaminobenzidene enhanced with cobalt chloride. The capsids bound to the globoside in P1 and P2 cells, and to purified globoside and Forssman antigen. B19 capsids and mouse monoclonal antibody to globoside (A. E. yon dem Borne et al. (1986)) bound to the same band on Western blotting of red cell extract, the putative "globoprotein" (Y. Tonegawa et al. (1977)).

## O[C@H](CS)[C@H](O)CS (racemic) [Dithiothreitol]
[1]; time 1 hr, final conc. 4 mM
  Change in HA titer (log2): 0 log2

## OCCS [2-Mercaptoethanol]
[1]; time 1 hr, final conc. 5 mM
  Change in HA titer (log2): 0 log2

## O=C(O)CN(CCN(CC(=O)O)CC(=O)O)CC(=O)O [EDTA]
[1]; time 1 hr, final conc. 5 mM
  Change in HA titer (log2): 0 log2

## C=O [Formaldehyde]
[1]; time 1 hr, final conc. 0.2%
  Change in HA titer (log2): 0 log2

## [Na+].[O-][I+3]([O-])([O-])[O-] [NaIO4, sodium periodate]
[1]; High concentrations (10 mM)
  decrease in HA titer: > 4 log2
[1]; time 15 min, final conc. 10 mM
  Change in HA titer (log2): < -4 log2
[1]; time 20 hr, final conc. 5 uM
  Change in HA titer (log2): -1 log2
[1]
  Effect of red cell treatment on binding of virus to the erythrocytes: markedly reduced binding

## Lactosyl ceramide
[2]
  HAI titer: < 10
[3]
  Blocking of B19 cytotoxicity to CFU-E: no effect

## Trypsin
[1]; time 1 hr, final conc. 0.2%
  Change in HA titer (log2): +4 log2
[1]
  Effect of red cell treatment on binding of virus to the erythrocytes: increased binding

## globotetraosylceramide [Globoside, P]
[4]
  Binding of B19 capsids on thin layer chromatography plate: bound
[2]
  Inhibition of hemagglutination by B19: inhibitory activity
  HAI titer: 25600
[3]
  Blocking of B19 cytotoxicity to CFU-E: completely blocked
[3]; different globoside concentrations
  Relationship of concentration to ability to block infectivity of mononuclear cells with B19 virus: positive linear relationship

## globotriaosylceramide [CTH, P^k]
[2]
  HAI titer: < 10
[3]
  Blocking of B19 cytotoxicity to CFU-E: no effect
